In patent US5705649A, “Protein staining compositions and methods” (Promega Corporation, priority 1995, dated 1998):

Columns and labels:
[1] = tested on: Promega Mid Range Molecular Weight Standards; assay: Post-electrophoretic staining of gels with octyl and dodecyl derivatives of MDPF
Protocol: A fifteen well, 12% gel was made as described in example 5 and was loaded with diluted Promega Mid Range Molecular Weight Standards to produce lanes containing samples having 200, 100, 80, 60, 40, 20 and 10 ng of protein per band. The gel was run as described in example 5 except that Promega Green 1 was not added to the cathode buffer. After electrophoresis, the gel was cut between lanes to produce gel segments containing fractionated protein samples at each of the concentrations listed above and these were placed in 30% methanol for 25-30 min at room temperature. The stock stain solutions of Example 33 were then diluted into distilled water at a concentration of 0.5% (v/v), and 50 ml of these solutions were used to stain the gels. After 1 hr incubation, the gels were visualized and photographed using a transilluminator. […] The gels were then placed in 5% methanol and allowed to destain overnight.
After overnight destaining, the gel segments were again placed upon a transilluminator, visualized and photographed. […] Nonetheless, these derivatives can be used for sensitive post-electrophoretic staining of proteins in gels.

[2] = tested on: Promega Mid Range Molecular Weight Standards; assay: In-gel staining with octyl and dodecyl derivatives of MDPF; conditions: stain stock in cathode buffer and wells
Protocol: (§1) Two 10-well, 12% gels were made as described in Example 5 and were loaded with diluted Promega Mid Range Molecular Weight Standards to produce lanes containing 200, 100, 80, 60, 40, 20, 10, and 5 ng of protein per band following fractionation by electrophoresis. These protein levels were applied to the gels in 10 μl of loading buffer described in Example 5 and then 10 μl of a 1:100 dilution of the derivative stock solution (Example 33) into a solution of 20% glycerol, 1% sodium dodecyl sulfate was added to the wells. The gels were then run as described in Example 5 except that 0.5 ml of derivative stain stock was added to the cathode buffer in the gel and the Promega Green 1 dye was omitted from the solution. The gels were placed on a transilluminator following electrophoresis and were observed visually and photographed as described above. Staining of the protein bands was seen down to 80 ng of protein per band for the dodecyl derivative for all proteins and, for the 31 kdalton standard (carbonic anhydrase) down to 60 ng/band. Staining of the bands was seen to 60 ng/band for all proteins with the octyl derivative, with the carbonic anhydrase being detectable down to 40 ng per band. Therefore both stains can be used for in-gel staining of proteins.

carbonic anhydrase = assay: as above; conditions: 31 kdalton standard; stain stock in cathode buffer and wells
Protocol: as §1

[3] = tested on: Promega Mid-Range Molecular Weight Standards; assay: Post-electrophoretic detection of protein using NBODY derivatives; conditions: crude dye solution in 5% acetic acid, 20% ethanol, one hour
Protocol: Promega Mid-Range Molecular Weight Standards were diluted and heated as described in Example 27 to produce solutions containing 125, 25, 5 and 1 ng of protein per band in 10 microliters of solution. A 10% Tris Glycine, precast polyacrylamid gel from Novex Corp. (San Diego, Calif., USA, Cat. No. EC 6075.) was loaded with 10 microliters of the just described, diluted molecular weight standard solutions in lanes so that two lanes, each with the same diluted standard solution, were separated by a blank lane. The gel was developed using conditions recommended by the manufacturer and following development, the gel was cut in the blank lane. The segments were placed in 50 ml of 5% acetic acid, 20% ethanol. Six hundred microliters of the NBODY-C12 reaction mixture from Example 40 was added to the solution with one of the segments of a pair (of lanes with the same protein molecular weight standard solution) and three hundred microliters of the NBODY-C16 reaction mixture from Example 40 was added to the solution with the other segment of the same pair. After one hour of incubation, the gel segments were photographed on a transilluminator as described in example 27. Protein bands were detected in the lanes containing the 125 and 25 ng of protein per band using this method and the crude dye solutions from Example 40.

[4] = tested on: Promega Mid-Range Molecular Weight Markers; assay: In-gel staining with dodecyl dansyl stain; conditions: 0.1% (v/v) stain in cathode buffer
Protocol: In order to determine if in-gel staining with dodecyl dansyl stain could be performed, a gel containing the concentrations of reagents in the gel buffers and running buffers listed in Example 5 was made and run as described in Example 5 with two exceptions: 1) dodecyl dansyl stain (in 50 ml ethanol, Example 28) was added to the cathode buffer at 0.1% (v/v) instead of Promega Green 1; 2) Promega Mid-Range Molecular Weight markers were diluted into 1× loading buffer as described in Example 5 and were loaded on the gel to produce lanes containing each protein at concentrations from 1000 ng/lane to 3.1 ng/lane. Following electrophoresis, the gel was placed directly on a transilluminator and visualized and photographed as described above. […] Thus, staining while the gel is running can be performed with the dodecyl dansyl stain and is particularly favorable for protein species with low mobilities.

[5] = tested on: Promega Mid Range Molecular Weight Standards; assay: Detection of fractionated protein in SDS-PAGE gels using dansyl derivatives made in acetone
Protocol: Several 15-well, SDS-PAGE minigels were poured as described in Example 27 and loaded with Promega Mid Range Molecular Weight Standards diluted as described in Example 27 to provide samples containing 1000, 300, 100, 50, 25, 12.5, and 6.25ng of each protein per band in separate lanes of the gel. The samples were fractionated by application of 20 mA per gel until the tracking dye reached the bottom of the gel. All the gels were placed in 10% trichloroacetic acid for 5 min and then incubated for 10 min in 10% (v/v) methanol. The gels were then incubated in a 10% methanol solution containing 2% (v/v) of the derivative eluates (dissolved in 50 ml ethanol) described in Example 28. The gels were transferred to a transilluminator and both visualized and photographed after two hours of staining. The following observations were made. Only the lanes containing 1000 and 300ng of protein per band were visible in the gel incubated with the n-butyl dansyl derivative. The lanes containing the 1000, 300, 100, 50, 25ng per band were visible in the gel incubated with the n-hexyl derivative as were some of the bands in the 12.5 ng per band lane.
After overnight incubation in the stain solutions, the gels were re-observed and rephotographed.
The gels were then placed in 1% acetic acid to remove any unbound stain and rephotographed after three hours of incubation in this solution at room temperature.

[6] = tested on: Promega Mid-Range Molecular Weight Standards; assay: Optimization of post-electrophoretic staining with dodecyl dansyl stain
Protocol: In order to determine if alternative staining conditions would improve the detection of protein by fluorescent staining with the dodecyl dansyl stain, the following experiment was performed. Two 12% SDS-PAGE minigels from Bio-Rad Corporation were used to fractionate samples of diluted Promega Mid-Range Molecular Weight Standards which were loaded into alternate lanes of the gel to produce protein bands containing 25 and 5 ng of each protein per band in adjacent lanes. The gels were run as recommended by the manufacturer in Bio-Rad Miniprotean II electrophoresis units and sliced to produce two lane segments containing one lane each of the 25 and 5 ng sample lanes. One slice was placed in each of the following solutions (50 ml) followed by incubation of the segment in a second 50 ml of the solution containing 200 μl of dodecyl dansyl derivative solution (in 50 ml ethanol) of Example 28: distilled water; 1% acetic acid; 1% trichloroacetic acid; 5M sodium chloride; 0.5M Tris base; 0.5M ammonium bicarbonate, pH 5.0; 2M Tris pH8.0; 0.05M sodium hydroxide; and 10% ethanol. The gels were allowed to stain overnight at room temperature and then were observed on a transilluminator to allow visualization and photography of the fluorescently stained bands as described in Example 27. […] It was thought that this is due to an inability of the particular stain derivative used to fluoresce under the highly acidic condition produced in the trichloroacetic acid solution.
In order to determine if the stain remained intact in these solutions and to standardize the conditions for the stains, the gel segments were then incubated in 50 ml of distilled water. After 1 hr, the segments were re-observed and re-photographed. […] Thus, staining sensitivity is dependent upon staining conditions and mildly acidic conditions appear to improve the sensitivity of staining.

[7] = tested on: Promega Mid Range Molecular Weight Standards; assay: Post-electrophoretic detection of protein with purified dansyl derivatives
Protocol: Samples of the eluates from purification of the derivatives were diluted 20-fold with ethanol and the absorption of the resulting solutions from 400 to 220 nm was measured. The absorption of the solutions at 328 nm was used as an indication of the concentration of the derivative in the staining studies in Example 27.
Several SDS-PAGE minigels were made as described in Experiments with Gene Fusions, Silhavy, Berman, Enquist, supra, using the SDS concentrations described by the authors. Samples of Promega Mid Range Molecular Weight Standards were diluted into the loading solution described in the reference above to produce solutions containing 200, 100, 50, 25, and 12.5 ng of each protein species in 10 μl of solution. These solutions were loaded onto the gels and the samples were fractionated in the gels by application of 10 mA per gel until the tracking dye for the samples reached the bottom of the gel. The gels were then rinsed 1 min in distilled water, 15 min in 10% trichloracetic acid (w/v), and then for 15 min in 10% methanol (v/v). The gel segments, approximately 5×6 cm containing the fractionated standard, were then transferred to a 2% ethanol solution (50 ml) containing 0.05 OD328 -equivalent of each of the dansyl derivatives (see Example 26).
The gel segments were returned to their respective staining solutions and were incubated overnight. The following morning, all of the gel segments were again visualized on the transilluminator and photographed as described above. […] In general, relatively equivalent staining of bands was obtained as determined by the strength of the fluorescent signal observed for the various fractionated species.

[8] = tested on: Promega Mid Range Molecular Weight standard; assay: Optimization of staining with dodecyl dansyl stain, acetic acid/ethanol fixing and staining
Protocol: Two 12% SDS-PAGE gels were run with diluted Promega Mid Range Molecular Weight standard to produce samples of proteins at 20, 10, and 5 ng of protein per band present in the gels. The gels were made as in Example 27 and proteins were fractionated on the gels in a BioRad Miniprotean II gel system as recommended by the manufacturer. The gels were cut to produce segments of gel containing three lanes of samples containing one lane each of the protein concentrations described above and placed for 15 min in 50 ml of one of the following fixative solutions: 30% ethanol, 20% acetic acid; 40% ethanol, 10% acetic acid; 40% ethanol, 20% acetic acid; 50% ethanol, 10% acetic acid; and 50% ethanol, 20% acetic acid. After the 15 min incubation, the gels were transferred into another 50 ml of the same fixative solution containing 50 μl of dodecyl dansyl stain solution (in 50 ml ethanol, Example 28). After 3 hrs., the segments were placed in 50 ml of 50 mM Tris-Cl, pH8.0, for 5 min and then were visualized on a transilluminator and photographed.
After visualization, the segments were returned to their respective staining solutions and allowed to incubate overnight. The following morning, the segments were visualized and photographed directly on a transilluminator without prior incubation in a different solution.

[9] = after overnight destaining in 5% methanol

SMILES: CCCCCCCCN=C1C(c2ccccc2)=COC1(OC)c1ccccc1 (stereo not drawn) [octyl MDPF derivative]
- lowest protein per band stained (most of the species) ([1]; 0.5% (v/v) stain in water, 1 hr): 20 ng
- retention of fluorescent staining [1, 9]: almost all of the fluorescent staining of the octyl MDPF derivative stained gel had been lost
- lowest protein per band stained, all proteins [2]: 60 ng
- lowest carbonic anhydrase per band stained (carbonic anhydrase): 40 ng

SMILES: CCCCCCCCCCCCCCCCNC(=O)CCCCCNc1ccc([N+](=O)[O-])c2nonc12 [NBODY-C16]
- lowest protein per band detected [3]: 25 ng

SMILES: CCCCCCCCCCCCN=C1C(c2ccccc2)=COC1(OC)c1ccccc1 (stereo not drawn) [dodecyl MDPF derivative]
- lowest protein per band stained [1, 9]: 20 ng
- lowest protein per band stained, all proteins [2]: 80 ng
- lowest carbonic anhydrase per band stained (carbonic anhydrase): 60 ng

SMILES: CCCCCCCCCCCCNS(=O)(=O)c1cccc2c(N(C)C)cccc12 [dodecyl dansyl derivative]
- detection of protein species migrating more than halfway through the gel [4]: not easily detected
- lowest protein per band seen (many of the heavier molecular weight species) [4]: 12.5 ng
- lowest protein per band visible ([5]; 2% (v/v) eluate in 10% methanol, two hours of staining): 300 ng
- protein per band at which most of the protein species were visible ([5]; after 1% acetic acid, three hours): 6.25 ng
- protein per band at which at least some of the bands could be visualized ([5]; overnight staining): 12.5 ng
- staining ([6]; all other staining solutions, overnight): No other staining solution allowed visualization of the fractionated protein species at this point
- protein per band displayed as fluorescent bands ([6]; stain in 0.5M ammonium bicarbonate, pH 5.0, overnight): 25 ng
- protein per band displayed as fluorescent bands ([6]; stain in 1% acetic acid, overnight): 25 ng
- staining ([6]; stain in 1% trichloroacetic acid, overnight): neither protein detection nor background staining
- staining ([6]; stain in 2M Tris pH 8.0, overnight): much weaker staining
- staining after distilled water ([6]; stained in 0.5M ammonium bicarbonate, pH 5.0, then 1 hr water): Staining was seen
- staining after distilled water ([6]; stained in 1% acetic acid, then 1 hr water): greater fluorescence
- staining after distilled water ([6]; stained in 1% trichloroacetic acid, then 1 hr water): greater fluorescence
- staining after distilled water ([6]; stained in 2M Tris pH 8.0, then 1 hr water): Staining was seen
- staining quality compared to the amino or butyl derivatives [7]: much better stains compared to the amino or butyl derivatives
- lowest protein amount with visible bands (several of the bands) ([7]; 15 min staining): 100 ng
- visibility of protein bands ([7]; overnight staining): easily visible
- visibility of protein bands ([8]; 3 hrs, 30 or 40% ethanol and 10 or 20% acetic acid, 20, 10, 5 ng per band): faintly visible
- level of protein per band detected ([8]; overnight staining in ethanol/acetic acid): ≤ 5 ng
